Key:
Assay in all cases: relative viability (nuclei count vs DMSO), 5 days (fraction); higher = more cells survive
[1] = compound: C[C@@]1(C(=O)Nc2ccc(F)nc2)CCCN1c1nc(Nc2cc(C3CC3)n[nH]2)c2cccn2n1 + Cc1cc(Nc2cc(N3CCN(C)CC3)nc(Sc3ccc(NC(=O)C4CC4)cc3)n2)n[nH]1 [Tozasertib] (partner 0.1 µM)
How it was run: (§1)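 For relative viability, nuclei counts in treated wells were divided by those in vehicle wells. Lung cancer cell lines had been pin-tool dosed in 1536-well plates the day after seeding and cultured for 5 days, then fixed and stained in one step (final 0.05% Triton X-100, 1% formaldehyde, 1 ug/ml Hoechst) and imaged at 4×. Doses were one drug alone or a fixed anchor-drug dose plus five library-drug doses (not always all listed) in √10 steps, and values are duplicate-plate medians.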

[2] = compound: C[C@@]1(C(=O)Nc2ccc(F)nc2)CCCN1c1nc(Nc2cc(C3CC3)n[nH]2)c2cccn2n1 + CC(=O)c1c(C)c2cnc(Nc3ccc(N4CCNCC4)cn3)nc2n(C2CCCC2)c1=O [Palbociclib] (partner 0.5 µM)
How it was run: as §1

[3] = compound: C[C@@]1(C(=O)Nc2ccc(F)nc2)CCCN1c1nc(Nc2cc(C3CC3)n[nH]2)c2cccn2n1 + N=C(N)NC(=N)NCCc1ccccc1 [Phenformin] (partner 250 µM)
How it was run: as §1

[4] = compound: C[C@@]1(C(=O)Nc2ccc(F)nc2)CCCN1c1nc(Nc2cc(C3CC3)n[nH]2)c2cccn2n1 + Cc1nc(NC(=O)N2CCC[C@H]2C(N)=O)sc1-c1ccnc(C(C)(C)C(F)(F)F)c1 [Alpelisib] (partner 2 µM)
How it was run: as §1

| Cell Line | relative viability ([1]; first compound 0.04 µM) | relative viability ([1]; first compound 0.1265 µM) | relative viability ([1]; first compound 0.4 µM) | relative viability ([1]; first compound 1.265 µM) | relative viability ([2]; first compound 0.04 µM) | relative viability ([2]; first compound 0.1265 µM) | relative viability ([2]; first compound 0.4 µM) | relative viability ([2]; first compound 1.265 µM) | relative viability ([3]; first compound 0.04 µM) | relative viability ([3]; first compound 0.1265 µM) | relative viability ([3]; first compound 0.4 µM) | relative viability ([3]; first compound 1.265 µM) | relative viability ([4]; first compound 0.04 µM) | relative viability ([4]; first compound 0.1265 µM) | relative viability ([4]; first compound 0.4 µM) | relative viability ([4]; first compound 1.265 µM) |
| --- | --- | --- | --- | --- | --- | --- | --- | --- | --- | --- | --- | --- | --- | --- | --- | --- |
| LC-2-ad | 0.403 | 0.393 | 0.288 | 0.296 | 0.421 | 0.396 | 0.384 | 0.347 | 0.484 | 0.388 | 0.369 | 0.257 | 0.764 | 0.726 | 0.61 | 0.504 |
| LCLC-97TM1 | 0.122 | 0.103 | 0.0881 | 0.126 | 0.0888 | 0.108 | 0.0814 | 0.145 | 0.333 | 0.133 | 0.129 | 0.12 | 0.186 | 0.156 | 0.181 | 0.181 |
| LCLC-103H | 0.474 | 0.472 | 0.394 | 0.473 | 0.471 | 0.452 | 0.48 | 0.465 | 0.343 | 0.309 | 0.253 | 0.28 | 1.01 | 0.818 | 0.829 | 1.08 |
| LK-2 | 0.178 | 0.169 | 0.187 | 0.175 | 0.381 | 0.287 | – | 0.41 | 0.251 | 0.178 | 0.166 | 0.202 | 1.01 | 1.13 | 0.818 | 1.23 |
| LOU-NH91 | 0.641 | 0.635 | 0.56 | 0.447 | 0.528 | 0.471 | 0.546 | 0.513 | 0.673 | 0.646 | 0.596 | 0.608 | 0.68 | 0.664 | 0.614 | 0.675 |
| LU99A | 0.237 | 0.222 | 0.234 | 0.182 | 0.273 | 0.208 | 0.173 | 0.26 | 0.773 | 0.621 | 0.586 | 0.52 | 0.392 | 0.306 | 0.291 | 0.307 |
| LXF-289 | 0.167 | 0.121 | 0.14 | 0.14 | 0.644 | 0.541 | 0.62 | 0.661 | 0.528 | 0.472 | 0.484 | 0.48 | 1.09 | 0.991 | 0.975 | 1.1 |
| NCI-H23 | 0.382 | 0.269 | 0.316 | 0.516 | 0.386 | 0.267 | 0.243 | 0.305 | 0.703 | 0.648 | 0.533 | 0.704 | 0.595 | 0.407 | 0.41 | 0.601 |
| NCI-H322M | 0.464 | 0.347 | 0.361 | 0.391 | 0.393 | 0.362 | 0.374 | 0.45 | 0.686 | 0.561 | 0.531 | 0.499 | 0.694 | 0.539 | 0.557 | 0.895 |
| NCI-H358 | 0.0856 | 0.0931 | 0.0786 | 0.0689 | 0.112 | 0.121 | 0.115 | 0.107 | 0.212 | 0.144 | 0.113 | 0.115 | 0.505 | 0.427 | 0.344 | 0.406 |
| NCI-H441 | 0.496 | 0.403 | 0.349 | 0.369 | 0.132 | 0.146 | 0.116 | 0.13 | 0.405 | 0.35 | 0.369 | 0.264 | 0.616 | 0.547 | 0.492 | 0.56 |
| NCI-H460 | 0.525 | 0.487 | 0.26 | 0.136 | 0.226 | 0.0841 | 0.058 | 0.143 | 0.53 | 0.436 | 0.36 | 0.239 | 0.401 | 0.207 | 0.222 | 0.389 |
| NCI-H520 | 0.48 | – | 0.442 | 0.423 | 0.254 | 0.196 | 0.201 | 0.218 | 0.819 | 0.301 | 0.487 | 0.416 | 0.918 | 0.688 | 0.926 | 0.801 |
| NCI-H522 | 0.571 | 0.459 | 0.537 | 0.562 | 0.935 | 0.874 | 0.779 | 0.889 | 0.557 | 0.633 | 0.59 | 0.56 | – | – | – | – |
| NCI-H596 | 0.883 | 0.748 | 0.683 | 0.71 | – | – | – | – | 0.649 | 0.69 | 0.738 | 0.763 | 0.573 | 0.264 | 0.356 | 0.471 |
| NCI-H647 | 0.543 | 0.217 | 0.159 | 0.123 | 0.398 | 0.413 | 0.353 | 0.367 | 0.651 | 0.488 | 0.346 | 0.458 | 1.24 | 0.957 | 0.864 | 0.913 |
| NCI-H1299 | – | – | – | – | – | – | – | – | – | – | – | – | 1.11 | 1.05 | 1.07 | 1.09 |
| NCI-H1563 | – | – | – | – | – | – | – | – | 0.64 | 0.671 | 0.605 | 0.626 | 0.943 | 0.891 | 0.913 | 0.85 |
| NCI-H1648 | 0.449 | – | – | 0.336 | 0.257 | 0.246 | 0.269 | 0.259 | – | – | – | – | – | – | – | – |
| NCI-H1650 | 0.345 | 0.29 | 0.258 | 0.255 | 0.324 | 0.36 | 0.328 | 0.314 | 0.411 | 0.387 | 0.376 | 0.193 | – | – | – | – |
| NCI-H1703 | – | – | – | – | – | – | – | – | – | – | – | – | 0.485 | 0.266 | 0.28 | 0.3 |
| NCI-H1792 | – | – | – | – | 0.417 | 0.742 | 0.268 | 0.393 | 0.145 | 0.0792 | 0.208 | 0.189 | 0.618 | 0.538 | 0.58 | 0.686 |
| NCI-H2342 | 0.534 | 0.453 | 0.346 | 0.499 | 0.505 | 0.598 | 0.47 | 0.48 | 0.574 | 0.43 | 0.46 | 0.44 | – | – | – | – |
| SW 900 | 0.525 | 0.551 | 0.464 | 0.29 | 0.614 | 0.497 | 0.588 | 0.547 | 0.566 | 0.544 | 0.596 | 0.461 | – | – | – | – |

— the supplement of paper PMC10307832
